How the values were obtained:
[1] = system: mesenchymal stem cells; assay: Solid-phase culture of peripheral blood after administration of HMGB1 peptide 1-44 (earlier experiments of the inventors); type: in vivo
Description: In addition, the colonies obtained as a result of culturing, on a solid phase, peripheral blood after administration of a peptide consisting of amino acid residues 1-44 of the human HMGB1 protein (hereinafter, HMGB1 peptide 1-44), which has an activity of mobilizing mesenchymal stem cells into peripheral blood, have been confirmed to have adherability to solid phase and self-renewal ability, and to be PDGFRα positive. They have also been confirmed to have a gene expression profile characteristic to mesenchymal stem cells, based on the results of clustering the transcriptome analysis data and performing gene ontology analysis.

[2] = system: cerebral infarction model rat; assay: Cerebral infarction model rat (right MCA occlusion), cerebral infarction volume ratio; type: in vivo, Crl:CD (SD) rats; conditions: 2 mg/kg tail vein at 105 minutes and 24 hours after right MCA occlusion; 48 hours after occlusion; control 34.1±1.1%; p<0.01
Description: Crl:CD (SD) rats (7 weeks old, male) were obtained from Charles River Laboratories, Japan, and after 6 days of acclimation, they were divided into the control group (n=8) and the peptide-administered group (n=8). On the following day of grouping, the rats were fixed in the supine position under 2% isoflurane inhalation anesthesia (anesthesia background: laughing gas:oxygen=7:3). To regulate body temperature during surgery, a thermometer probe connected to a digital thermometer was inserted into the rectum, and changes in the rectal temperature before and after surgery were monitored. […]
Forty-eight hours after the right MCA occlusion, the animals were decapitated under anesthesia with sodium pentobarbital (50 mg/kg, intraperitoneal administration), and the entire brain was excised to prepare brain sections with a thickness of 2 mm. […] The resulting photographs were subjected to image analysis to obtain actual measurements of the cerebral infarction area and cross-sectional area of the brain, and the cerebral infarct volume and the total brain volume from 4 mm anterior to bregma to 6 mm posterior to bregma were calculated using the calculation formula below. In addition, the cerebral infarction volume ratio was calculated from the cerebral infarction volume and the total volume of the brain (cerebral infarction volume ratio (%)=cerebral infarction volume/total brain volume x 1001. […]

[3] = system: inflammatory bowel disease (IBD) model mice; assay: Dextran sulfate sodium (DSS)-induced inflammatory bowel disease (IBD) model mice; type: in vivo, BALB/c mice
Method: Dextran sodium sulfate (DSS) (molecular weight 36,000 to 50,000, manufactured by MP Biomedicals, Product No. 160110) was dissolved in purified water to prepare a 2.5% (w/v) DSS aqueous solution. In addition, the peptide 1r10 (TFA salt) consisting of the amino acid sequence of SEQ ID NO: 1 was chemically synthesized by the solid phase method and used as the test substance.
BALB/c mice (9 weeks old, male) were allowed to drink the 2.5% DSS aqueous solution freely for 7 days to induce colitis. After that, the drinking was changed from DSS to tap water, and the large intestine was collected 3 days later (10 days after the start of drinking the DSS aqueous solution).
The IBD model mice prepared as described above were divided into the peptide 1r10 administration group (n=8) and the control group (n=8). Peptide administration was carried out by injecting into the tail vein, the peptide 1r10 solution adjusted to a concentration of 0.5 mg/mL using physiological saline as a solvent at an amount of 10 mL/kg on Days 1, 4, 7, 8 and 9 after the start of drinking the DSS aqueous solution (peptide dose of 5 mg/kg). The control group was injected with physiological saline solution at a dose of 10 mL/kg into the tail vein on Days 1, 4, 7, 8 and 9 after the start of drinking the DSS aqueous solution.
For 10 days from the start of drinking the DSS aqueous solution, the mice were weighed and observed for the symptoms (stool condition and bleeding) every day except Saturdays, Sundays, and holidays, and the degree of symptoms was evaluated by calculating the DAI (disease activity index) score. The DAI score was calculated by scoring the weight loss rate, stool condition, and stool bleeding as shown in the table below, and summing the scores of these three items. The scoring criteria were partly based on the method of Li et al. (PLoS One. 2015 Dec. 7; 10 (12): e0144101).
In addition, the length of the large intestine (from the colon to the rectum) collected 10 days after the start of drinking DSS was measured using a digital caliper.

[4] = system: atopic dermatitis model mice; assay: MC903-induced atopic dermatitis model mice; type: in vivo, C57BL/6 mice
Description: MC903 (generic name: Calcipotriol) was used to induce atopic dermatitis (hereinafter, also referred to as “AD”) in mice. In addition, the peptide 1r10 (TFA salt) described in Reference Example 1 was used as the test substance.
C57BL/6 mice (C57BL/6 JJcl, 7-8 weeks old, male, microbial grade SPF) were obtained from Japan Claire Co., Ltd., acclimated in the animal breeding room for 5 days or more, and then subjected to the following experiments. An ethanol-adjusted MC903 solution was applied to the skin of the auricle of the mice at a dose of 2.25 nmol MC903/ear/once/day five times a week for 2 weeks (ten times in total) to induce atopic dermatitis (AD). This MC903-induced AD model is a model in which AD-like pathology can be reproduced in a short period of time (1-2 weeks) by artificially inducing the secretion of TSLP from epithelial cells, which is actually seen in AD patients, thereby eliciting a series of type 2 immune response cascades (Li M et al., Proc Natl Acad Sci USA. 2006; 103:11736-41.).
They were then divided into the control group and the peptide administration group (n=7 in each group), while the groups were equalized based on the auricle thickness in consideration of the difference in the severity of inflammation between individuals. For peptide administration, the solution of peptide 1r10 adjusted to 0.3 mg/mL with physiological saline was injected into the tail vein at a volume of 5 mL/kg ([…]) twice in total, once on the grouping day (Day 15) and once during the following 4 days (Day 16 to Day 19). For the control group a solution of bovine serum albumin (BSA) adjusted to 0.3 mg/mL with physiological saline was injected into the tail vein at a volume of 5 mL/kg (BSA dose of 1.5 mg/kg) twice in total, once on the grouping day (Day 15) and once during the following 4 days (Day 16 to Day 19).
During the peptide administration period (Day 15 to Day 19), ear swellings were measured daily to determine edema. Scaling, which is the main symptom of AD, was determined by photography (three times a week) using a digital camera (E-Ml II; Olympus) from a fixed base at a height of 13-14 cm from the auricle.
On the 4th day (Day 19) after the start of peptide administration, mice were placed under the influence of isoflurane anesthesia and euthanized with cervical spine dislocation. The skin at auricular inflammation site and its surroundings was quickly excised and collected while on ice to prevent protein denaturation of the sample. After removing excess hair and skin with tweezers, the collected auricular skin was immersed in 10% formalin and fixed at 4° C. overnight while shaking on ice using a shaker. After fixation, the skin was thoroughly washed with phosphate buffered saline (PBS) and trimmed, and then a paraffin block was made using an automatic embedding device (Excelsior ES; Thermo Scientific) with attention to the tissue polarity in the dorsoventral axis/left-right axis specific to the skin). Then, it was sliced (5 μm thick) with a rotary microtome (HM 325; Thermo Scientific), fixed on a slide glass, and subjected to various staining. As pathological analysis, skin thickness and infiltration of immune cells were evaluated by histochemical staining and fluorescent immunostaining, respectively.
To quantitatively evaluate the healing condition of the site of inflammation, hematoxylin-eosin (HE) staining of the paraffin thin sections (5 μm thick) of skin tissue generated as described above was performed to measure the dermal thickness. Specifically, three sections were prepared for each individual, and each section was photographed with a microscope (Keyence BZ-X710) at one site each of the center of inflammation, head side, and tail side (that is, a total of 9 sites were photographed per individual). […]

[5] = 5 mg/kg tail vein, 8 to 10 days after the start of drinking DSS, versus saline control

| Substance | number of colonies obtained by solid-phase culture of peripheral blood, versus physiological saline [1] | cerebral infarction volume ratio (mean±standard error) [2] [%] | body weight 10 days after the start of drinking the DSS aqueous solution ([3]; 5 mg/kg tail vein on Days 1, 4, 7, 8 and 9, Day 10) | changes in mouse body weight during the test period ([3]; 5 mg/kg tail vein on Days 1, 4, 7, 8 and 9 after start of drinking DSS, versus saline control) | DAI (disease activity index) score [3, 5] | stool score (sum of stool condition score and bleeding score) [3, 5] | colon length (length of the large intestine) ([3]; 5 mg/kg tail vein, ten days after the start of drinking DSS, versus saline control) | dermis thickness ([4]; 1.5 mg/kg tail vein twice, 4th day after start of administration (Day 19), HE staining, versus control) | scaling in the auricle ([4]; 1.5 mg/kg tail vein twice, 4 days after start of peptide administration, versus BSA control) | number of CD45-positive cells (infiltration of immune cells) in auricular skin sections ([4]; 1.5 mg/kg tail vein twice, Day 19, high power field 400×, versus control) | auricular thickness (edema) ([4]; 1.5 mg/kg tail vein twice, peptide administration period Day 15 to Day 19, versus BSA control) | changes in mouse body weight during the period of the study ([4]; Day 15 to Day 19, between peptide and control groups, p>0.05, repeated one-way ANOVA) | dermis thickness ([4]; dose of 0.5 mg/kg, versus control (data not shown)) |
| --- | --- | --- | --- | --- | --- | --- | --- | --- | --- | --- | --- | --- | --- |
| HMGB1 peptide 1-44: peptide consisting of amino acid residues 1-44 of the human HMGB1 protein (MGKGDPKKPRGKMSSYAFFVQTCREEHKKKHPDASVNFSEFSKK; UniProt P09429 1-44, looked up, fragment) | larger in the peripheral blood after administration of HMGB1 peptide 1-44 than in the peripheral blood after administration of physiological saline | – | – | – | – | – | – | – | – | – | – | – | – |
| 1r10: artificial sequence peptide consisting of the amino acid sequence of SEQ ID NO: 1 (30 amino acids) (IMWLCQYFFQCHKCAVKKKTWKEKKDRRHP) [Peptide 1r10] | – | 27.2±1.2 | showed a tendency to recover body weight | the degree of decrease was slower in the peptide-administered group than in the control group | lower in the peptide-administered group than in the control group | lower in the peptide-administered group than in the control group | longer than that of the control group | statistically significant decrease in dermis thickness | reduction of scaling in the auricle was observed | statistically significant decrease in the number of CD45-positive cells | statistically significant reduction in auricular thickness | not significantly different between the groups | statistically significant decrease in dermis thickness |
